“And” between values parts separate entries of the source, which are not always exact repeats. Identical values can stand only once. Records with an inconclusive call do not appear.

The values that follow come from PubChem BioAssay AID228 (DTP/NCI, 2004).

This assay relates to BDF1 mice, Friend leukemia sc, tumor weight T/C. Put plainly: NCI In Vivo Anticancer Drug Screen. Data for tumor model Friend Virus Leukemia (Solid) (subcutaneous) in B6D2F1 (BDF1) mice. To be noted: endpoint: mean tumor weight, higher = larger tumour. How it is done: The antitumor activity of compounds was measured in mice bearing transplantable tumors. Survival or tumor size were measured and the results are expressed as the measurement made in the treated group (T) divided by the measurement made in the vehicle treated control group (C). The tumor model used in this assay is Friend Virus Leukemia (Solid) (subcutaneous) in B6D2F1 (BDF1) mice

[1] abbreviates: dose: 6.0 mg/kg/injection, schedule: Q01DX011 (ip), vehicle: carboxymethylcellulose (CMC).
The mark [2] stands for this setting: dose: 7.0 mg/kg/injection, schedule: Q01DX011 (ip), vehicle: carboxymethylcellulose (CMC).
Setting [3] is: dose: 250.0 mg/kg/injection, schedule: Q01DX011 (ip), vehicle: carboxymethylcellulose (CMC).
[4] abbreviates: dose: 500.0 mg/kg/injection, schedule: Q01DX011 (ip), vehicle: carboxymethylcellulose (CMC).
[5] abbreviates: dose: 1.0 mg/kg/injection, schedule: Q01DX011 (ip), vehicle: carboxymethylcellulose (CMC).
Setting [6] is: dose: 6.25 mg/kg/injection, schedule: Q01DX011 (ip), vehicle: carboxymethylcellulose (CMC).
The mark [7] stands for this setting: dose: 62.0 mg/kg/injection, schedule: Q01DX011 (ip), vehicle: carboxymethylcellulose (CMC).
Setting [8] is: dose: 125.0 mg/kg/injection, schedule: Q01DX011 (ip), vehicle: carboxymethylcellulose (CMC).
Where [9] appears, read: dose: 1.5 mg/kg/injection, schedule: Q01DX011 (ip), vehicle: carboxymethylcellulose (CMC).

`Nc1ncnc2[nH]ncc12`: the T/C is, setting by setting: (dose: 0.9 mg/kg/injection, schedule: Q01DX011 (ip), vehicle: carboxymethylcellulose (CMC)) 108 % of control; (dose: 0.93 mg/kg/injection, schedule: Q01DX011 (ip), vehicle: carboxymethylcellulose (CMC)) 74 % of control; (dose: 1.8 mg/kg/injection, schedule: Q01DX011 (ip), vehicle: carboxymethylcellulose (CMC)) 157 % of control; (dose: 1.87 mg/kg/injection, schedule: Q01DX011 (ip), vehicle: carboxymethylcellulose (CMC)) 90 % of control; (dose: 1.9 mg/kg/injection, schedule: Q01DX011 (ip), vehicle: carboxymethylcellulose (CMC)) 124 % of control; (dose: 3.7 mg/kg/injection, schedule: Q01DX011 (ip), vehicle: carboxymethylcellulose (CMC)) 57 % of control. For the same compound, the T/C runs as follows: (dose: 3.75 mg/kg/injection, schedule: Q01DX011 (ip), vehicle: carboxymethylcellulose (CMC)) 50 % of control; (dose: 3.8 mg/kg/injection, schedule: Q01DX011 (ip), vehicle: carboxymethylcellulose (CMC)) 88 % of control; (dose: 5.0 mg/kg/injection, schedule: Q01DX011 (ip), vehicle: carboxymethylcellulose (CMC)) 29 % of control; under setting [1], 40 % of control; under setting [2], 28 % of control.

Take `c1ccc2c(c1)ccc1cc3c(ccc4ccccc43)cc12`: the T/C runs as follows: (dose: 15.0 mg/kg/injection, schedule: Q01DX011 (ip), vehicle: carboxymethylcellulose (CMC)) 90 % of control; (dose: 31.0 mg/kg/injection, schedule: Q01DX011 (ip), vehicle: carboxymethylcellulose (CMC)) 86 % of control; (dose: 62.5 mg/kg/injection, schedule: Q01DX011 (ip), vehicle: carboxymethylcellulose (CMC)) 39 % of control; (dose: 63.0 mg/kg/injection, schedule: Q01DX011 (ip), vehicle: carboxymethylcellulose (CMC)) 93 % of control; under setting [3], 52 % of control; under setting [4], 29 % of control.

Take `Nc1ccc(O)cc1`: the T/C was 64 % of control (dose: 100.0 mg/kg/injection, schedule: Q01DX011 (ip), vehicle: saline) and 4 % of control (dose: 200.0 mg/kg/injection, schedule: Q01DX011 (ip), vehicle: saline).

Consider `O=S(=O)(O)c1cccnc1`, for which the T/C (dose: 39.0 mg/kg/injection, schedule: Q01DX011 (ip), vehicle: carboxymethylcellulose (CMC)) was 86 % of control and 101 % of control; the T/C (dose: 157.0 mg/kg/injection, schedule: Q01DX011 (ip), vehicle: carboxymethylcellulose (CMC)) was 98 % of control and 110 % of control.

`Nc1nc2ncc(CNc3ccc(C(=O)NC(CCC(=O)O)C(=O)O)cc3)nc2c(=O)[nH]1` (stereo not given): the T/C under setting [2] is 56 % of control; the T/C (dose: 14.0 mg/kg/injection, schedule: Q01DX011 (ip), vehicle: carboxymethylcellulose (CMC)) was 105 % of control; the T/C (dose: 28.0 mg/kg/injection, schedule: Q01DX011 (ip), vehicle: carboxymethylcellulose (CMC)) was 79 % of control; the T/C (dose: 56.0 mg/kg/injection, schedule: Q01DX011 (ip), vehicle: carboxymethylcellulose (CMC)) is 70 % of control.

Regarding `CC(CCC(C)OS(C)(=O)=O)OS(C)(=O)=O` (stereo not given), the T/C (dose: 0.5 mg/kg/injection, schedule: Q01DX011 (ip), vehicle: carboxymethylcellulose (CMC)) is 82 % of control; the T/C under setting [5] is 91 % of control; the T/C (dose: 2.0 mg/kg/injection, schedule: Q01DX011 (ip), vehicle: carboxymethylcellulose (CMC)) is 103 % of control; the T/C (dose: 4.0 mg/kg/injection, schedule: Q01DX011 (ip), vehicle: carboxymethylcellulose (CMC)) was 105 % of control; the T/C under setting [1] is 98 % of control; the T/C under setting [6] was 56 % of control.

For `O=C(O)C(=O)c1ccc(-c2ccccc2)cc1`, the T/C under setting [7] was 67 % of control and the T/C under setting [8] is 45 % of control.

In the case of `CCc1nc(N)nc(N)c1-c1ccc(Cl)cc1`, the T/C reads like this: under setting [6], 124 % of control; (dose: 12.5 mg/kg/injection, schedule: Q01DX011 (ip), vehicle: carboxymethylcellulose (CMC)) 85 % of control; (dose: 25.0 mg/kg/injection, schedule: Q01DX011 (ip), vehicle: carboxymethylcellulose (CMC)) 113 % of control; (dose: 50.0 mg/kg/injection, schedule: Q01DX011 (ip), vehicle: carboxymethylcellulose (CMC)) 95 % of control.

In the case of `NC(=O)NO`, the T/C is 91 % of control (dose: 16.0 mg/kg/injection, schedule: Q01DX011 (ip), vehicle: carboxymethylcellulose (CMC)); 50 % of control (dose: 32.0 mg/kg/injection, schedule: Q01DX011 (ip), vehicle: carboxymethylcellulose (CMC)); 108 % of control (dose: 32.0 mg/kg/injection, schedule: Q01DX011 (ip), vehicle: saline); 8 % of control (dose: 64.0 mg/kg/injection, schedule: Q01DX011 (ip), vehicle: carboxymethylcellulose (CMC)); 7 % of control (dose: 64.0 mg/kg/injection, schedule: Q01DX011 (ip), vehicle: saline); 3 % of control (dose: 96.0 mg/kg/injection, schedule: Q01DX011 (ip), vehicle: saline). Also, the T/C by setting is: (dose: 128.0 mg/kg/injection, schedule: Q01DX011 (ip), vehicle: carboxymethylcellulose (CMC)) 4 % of control; (dose: 128.0 mg/kg/injection, schedule: Q01DX011 (ip), vehicle: saline) 4 % of control.

Consider `CC1CCOS(=O)O1` (stereo not given), for which the T/C reads like this: (dose: 10.0 mg/kg/injection, schedule: Q01DX011 (ip), vehicle: carboxymethylcellulose (CMC)) 123 % of control; (dose: 20.0 mg/kg/injection, schedule: Q01DX011 (ip), vehicle: carboxymethylcellulose (CMC)) 84 % of control; (dose: 40.0 mg/kg/injection, schedule: Q01DX011 (ip), vehicle: carboxymethylcellulose (CMC)) 72 % of control; (dose: 80.0 mg/kg/injection, schedule: Q01DX011 (ip), vehicle: carboxymethylcellulose (CMC)) 32 % of control.

As for `C[C@]12CCC(=O)C=C1CC[C@@H]1[C@@H]2[C@@H](O)C[C@@]2(C)[C@H]1CC[C@]2(O)C(=O)COC(=O)CCC(=O)O`, the T/C runs as follows: (dose: 75.0 mg/kg/injection, schedule: Q01DX011 (sc), vehicle: steriod suspending solution) 52 % of control; (dose: 150.0 mg/kg/injection, schedule: Q01DX011 (sc), vehicle: steriod suspending solution) 49 % of control; (dose: 300.0 mg/kg/injection, schedule: Q01DX011 (sc), vehicle: steriod suspending solution) 27 % of control.

Turning to `OCC1OC(n2cnc3c(Cl)ncnc32)C(O)C1O` (stereo not given), the T/C runs as follows: under setting [7], 93 % of control; under setting [8], 105 % of control; under setting [3], 109 % of control; under setting [4], 115 % of control.

Take `CCCn1cnc2c(=S)nc(N)[nH]c21`: the T/C runs as follows: (dose: 0.67 mg/kg/injection, schedule: Q01DX011 (ip), vehicle: carboxymethylcellulose (CMC)) 67 % of control; under setting [5], 67 % of control; under setting [9], 28 % of control; (dose: 2.9 mg/kg/injection, schedule: Q01DX011 (ip), vehicle: carboxymethylcellulose (CMC)) 32 % of control; (dose: 4.4 mg/kg/injection, schedule: Q01DX011 (ip), vehicle: carboxymethylcellulose (CMC)) 32 % of control.

Regarding `Nc1nc(=S)c2ncn(C3OC(CO)C(O)C3O)c2[nH]1` (stereo not given), the T/C (dose: 0.18 mg/kg/injection, schedule: Q01DX011 (ip), vehicle: carboxymethylcellulose (CMC)) was 74 % of control; the T/C (dose: 0.37 mg/kg/injection, schedule: Q01DX011 (ip), vehicle: carboxymethylcellulose (CMC)) is 63 % of control; the T/C (dose: 0.6 mg/kg/injection, schedule: Q01DX011 (ip), vehicle: carboxymethylcellulose (CMC)) was 53 % of control; the T/C under setting [5] is 36 % of control; the T/C under setting [9] is 31 % of control and 48 % of control.

As to `O=P(c1ccccc1)(N1CC1)N1CC1`, the T/C by setting is: (dose: 6.0 mg/kg/injection, schedule: Q01DX011 (ip), vehicle: saline) 106 % of control; (dose: 12.0 mg/kg/injection, schedule: Q01DX011 (ip), vehicle: saline) 124 % of control; (dose: 24.0 mg/kg/injection, schedule: Q01DX011 (ip), vehicle: saline) 80 % of control.

With `CCCCCCCCCCCC[n+]1c(C)cc(N)c2ccccc21`, for the setting “dose: 0.1 mg/kg/injection, schedule: Q01DX011 (ip), vehicle: carboxymethylcellulose (CMC)”, the T/C is 182 % of control.
